From ChEMBL document CHEMBL5705893, “Targeting the mitotic checkpoint for cancer therapy with NMS-P715, an inhibitor of MPS1 kinase” (Cancer Res, 2010) come the findings set out here.

Structures are written as SMILES. Calls of active or inactive are those of the source. No cut-off for these calls is given here.

For data set [1], the target named is Mitotic checkpoint serine/threonine-protein kinase BUB1 (Homo sapiens, UniProt O43683). Description: Inhibition of recombinant BUB1 (unknown origin).
For data set [2], the target named is Tyrosine-protein kinase JAK1 (Homo sapiens, UniProt P23458). Description: Inhibition of recombinant JAK1 (unknown origin).
The target of data set [3] is Tyrosine-protein kinase JAK3 (Homo sapiens, UniProt P52333). Description: Inhibition of recombinant JAK3 (unknown origin).
In data set [4] the target is Serine/threonine-protein kinase PLK1 (Homo sapiens, UniProt P53350). Kind of data set: Inhibition of recombinant PLK1 (unknown origin).
A further data set relates to KG-1. Kind of data set: Antiproliferative activity against human KG-1 cells assessed as inhibition of cell growth incubated for 72 hrs by celltiter-glo assay. In kind it is functional, cell-based. Conditions: KG-1, 72 h. For orientation: Cellular ATP, detected with luciferase, serves as a proxy for viable cell number.
The next data set concerns NCI-H526. Description: Antiproliferative activity against human NCI-H526 cells assessed as inhibition of cell growth incubated for 72 hrs by celltiter-glo assay. In kind it is functional, cell-based. Conditions: NCI-H526, 72 h.
The next data set has as its system HCC78. Description: Antiproliferative activity against human HCC78 cells assessed as inhibition of cell growth incubated for 72 hrs by celltiter-glo assay. In kind it is functional, cell-based. As to conditions: HCC78, 72 h.
A further data set has as its system SUD4. Description: Antiproliferative activity against human SU-DHL-4 cells assessed as inhibition of cell growth incubated for 72 hrs by celltiter-glo assay. In kind it is functional, cell-based. Conditions: SU-DHL-4, 72 h.
The subject of a further data set is SU-DHL-1. Description: Antiproliferative activity against human SU-DHL-1 cells assessed as inhibition of cell growth incubated for 72 hrs by celltiter-glo assay. As to conditions: SU-DHL-1, 72 h. In kind it is functional, cell-based.
In data set [5] the test system is HeLa. Kind of data set: Induction of mitotic arrest in human nocodazole-arrested HeLa cells assessed as delocalization of MAD1 in presence of MG132. In kind it is functional, cell-based.
Data set [6] relates to HeLa. Kind of data set: Induction of mitotic arrest in human nocodazole-arrested HeLa cells assessed as delocalization of MAD2 at 1 micromol/L in presence of MG132. The format is functional, cell-based. As to conditions: dose 1.0 µmol/L.
A further data set deals with A2780. Description: Cell cycle arrest in human A2780 cells assessed as accumulation of cells at G1 phase at 0.2 to 1 micromol/L incubated for 24 hrs by FACS/PI staining based flow cytometric analysis. The format is functional. As to conditions: dose 0.2-1 µmol/L. For orientation: Flow cytometry measures light scatter and fluorescence of single cells or particles in a stream.

The subject of another data set is HCT-116. Kind of data set: Cell cycle arrest in human HCT-116 cells assessed as accumulation of cells at G1 phase at 0.2 to 1 micromol/L incubated for 48 hrs by FACS/PI staining based flow cytometric analysis. Conditions: dose 0.2-1 µmol/L. In kind it is functional.
Data set [7] can be described thus: Cmax in Athymic nu-nu mouse at 10 mg/kg, po measured upto 24 hrs by LC-MS/MS analysis. In kind it is ADME, organism-based. Conditions: in vivo.

Chain of Serine/threonine-protein kinase PLK1 (P53350 whole entry): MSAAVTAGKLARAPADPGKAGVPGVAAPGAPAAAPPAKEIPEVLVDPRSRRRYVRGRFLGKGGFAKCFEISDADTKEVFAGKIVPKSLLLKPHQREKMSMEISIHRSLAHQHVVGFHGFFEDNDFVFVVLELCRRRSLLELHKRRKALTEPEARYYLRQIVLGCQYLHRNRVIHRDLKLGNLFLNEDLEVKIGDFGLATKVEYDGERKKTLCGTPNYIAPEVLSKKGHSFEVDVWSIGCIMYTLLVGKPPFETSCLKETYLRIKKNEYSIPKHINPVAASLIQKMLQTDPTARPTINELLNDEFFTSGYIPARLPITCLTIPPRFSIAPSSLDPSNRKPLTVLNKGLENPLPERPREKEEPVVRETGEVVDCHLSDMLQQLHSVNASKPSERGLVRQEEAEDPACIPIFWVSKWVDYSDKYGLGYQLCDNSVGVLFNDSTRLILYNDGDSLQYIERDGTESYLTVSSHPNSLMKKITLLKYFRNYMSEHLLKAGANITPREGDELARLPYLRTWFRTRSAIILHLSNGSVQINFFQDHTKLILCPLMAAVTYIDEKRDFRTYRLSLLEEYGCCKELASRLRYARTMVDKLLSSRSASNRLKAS
Chain of Mitotic checkpoint serine/threonine-protein kinase BUB1 (O43683 whole entry): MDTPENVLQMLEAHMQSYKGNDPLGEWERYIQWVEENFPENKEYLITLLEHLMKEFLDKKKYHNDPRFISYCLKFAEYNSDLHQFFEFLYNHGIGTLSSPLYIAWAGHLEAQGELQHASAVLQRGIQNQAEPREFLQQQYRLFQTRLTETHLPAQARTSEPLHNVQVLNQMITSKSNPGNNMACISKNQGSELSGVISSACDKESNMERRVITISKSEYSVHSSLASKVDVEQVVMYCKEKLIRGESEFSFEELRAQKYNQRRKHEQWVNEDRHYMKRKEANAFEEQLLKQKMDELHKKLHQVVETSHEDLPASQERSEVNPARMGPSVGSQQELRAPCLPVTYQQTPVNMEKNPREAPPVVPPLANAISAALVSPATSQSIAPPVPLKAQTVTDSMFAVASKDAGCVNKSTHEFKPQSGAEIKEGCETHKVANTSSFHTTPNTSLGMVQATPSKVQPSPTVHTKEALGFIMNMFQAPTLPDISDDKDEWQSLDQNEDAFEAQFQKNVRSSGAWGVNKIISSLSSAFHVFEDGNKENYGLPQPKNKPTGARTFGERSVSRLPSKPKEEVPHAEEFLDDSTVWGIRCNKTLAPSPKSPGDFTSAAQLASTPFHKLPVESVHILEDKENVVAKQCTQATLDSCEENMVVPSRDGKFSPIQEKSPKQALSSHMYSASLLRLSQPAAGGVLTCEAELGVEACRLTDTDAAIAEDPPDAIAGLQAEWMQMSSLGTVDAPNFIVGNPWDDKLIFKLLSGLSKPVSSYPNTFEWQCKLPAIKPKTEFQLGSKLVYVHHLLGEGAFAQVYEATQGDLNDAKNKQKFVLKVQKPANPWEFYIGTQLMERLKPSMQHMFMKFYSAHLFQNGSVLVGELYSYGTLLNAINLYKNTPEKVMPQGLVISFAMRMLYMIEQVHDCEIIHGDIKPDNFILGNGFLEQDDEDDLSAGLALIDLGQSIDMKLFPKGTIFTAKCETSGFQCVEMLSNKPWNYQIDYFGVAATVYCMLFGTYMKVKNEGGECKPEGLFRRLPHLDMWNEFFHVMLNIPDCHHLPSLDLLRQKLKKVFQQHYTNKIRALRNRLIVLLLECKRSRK
Chain of Tyrosine-protein kinase JAK1 (P23458 whole entry): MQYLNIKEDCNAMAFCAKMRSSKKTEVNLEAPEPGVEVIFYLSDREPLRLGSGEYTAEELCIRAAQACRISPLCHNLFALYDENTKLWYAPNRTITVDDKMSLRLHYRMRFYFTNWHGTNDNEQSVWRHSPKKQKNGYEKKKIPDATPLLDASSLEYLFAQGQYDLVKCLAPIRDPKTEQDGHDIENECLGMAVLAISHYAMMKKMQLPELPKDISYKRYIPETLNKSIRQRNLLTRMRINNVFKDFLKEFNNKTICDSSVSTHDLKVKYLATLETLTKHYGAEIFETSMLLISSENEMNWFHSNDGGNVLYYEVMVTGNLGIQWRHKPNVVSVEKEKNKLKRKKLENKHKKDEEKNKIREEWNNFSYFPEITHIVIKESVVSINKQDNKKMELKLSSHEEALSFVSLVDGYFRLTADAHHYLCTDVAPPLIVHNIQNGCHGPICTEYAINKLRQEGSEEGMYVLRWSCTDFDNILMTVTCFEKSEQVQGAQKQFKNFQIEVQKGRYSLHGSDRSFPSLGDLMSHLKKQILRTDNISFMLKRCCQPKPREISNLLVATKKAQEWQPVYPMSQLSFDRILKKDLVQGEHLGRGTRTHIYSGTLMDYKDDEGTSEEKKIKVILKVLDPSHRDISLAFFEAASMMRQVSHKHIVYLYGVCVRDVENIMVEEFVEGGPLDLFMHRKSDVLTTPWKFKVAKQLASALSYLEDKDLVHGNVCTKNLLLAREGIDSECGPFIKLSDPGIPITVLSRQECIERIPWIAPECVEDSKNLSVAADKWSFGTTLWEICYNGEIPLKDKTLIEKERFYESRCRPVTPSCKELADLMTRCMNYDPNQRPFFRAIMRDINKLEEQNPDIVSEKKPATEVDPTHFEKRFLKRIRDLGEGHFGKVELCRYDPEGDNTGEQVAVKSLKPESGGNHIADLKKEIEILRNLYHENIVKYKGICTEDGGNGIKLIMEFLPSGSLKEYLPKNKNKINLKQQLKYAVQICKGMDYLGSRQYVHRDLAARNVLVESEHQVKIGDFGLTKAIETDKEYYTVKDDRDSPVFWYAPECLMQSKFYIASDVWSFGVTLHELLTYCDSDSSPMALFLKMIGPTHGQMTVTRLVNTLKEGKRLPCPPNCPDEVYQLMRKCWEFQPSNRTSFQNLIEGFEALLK
Chain of Tyrosine-protein kinase JAK3 (P52333 whole entry): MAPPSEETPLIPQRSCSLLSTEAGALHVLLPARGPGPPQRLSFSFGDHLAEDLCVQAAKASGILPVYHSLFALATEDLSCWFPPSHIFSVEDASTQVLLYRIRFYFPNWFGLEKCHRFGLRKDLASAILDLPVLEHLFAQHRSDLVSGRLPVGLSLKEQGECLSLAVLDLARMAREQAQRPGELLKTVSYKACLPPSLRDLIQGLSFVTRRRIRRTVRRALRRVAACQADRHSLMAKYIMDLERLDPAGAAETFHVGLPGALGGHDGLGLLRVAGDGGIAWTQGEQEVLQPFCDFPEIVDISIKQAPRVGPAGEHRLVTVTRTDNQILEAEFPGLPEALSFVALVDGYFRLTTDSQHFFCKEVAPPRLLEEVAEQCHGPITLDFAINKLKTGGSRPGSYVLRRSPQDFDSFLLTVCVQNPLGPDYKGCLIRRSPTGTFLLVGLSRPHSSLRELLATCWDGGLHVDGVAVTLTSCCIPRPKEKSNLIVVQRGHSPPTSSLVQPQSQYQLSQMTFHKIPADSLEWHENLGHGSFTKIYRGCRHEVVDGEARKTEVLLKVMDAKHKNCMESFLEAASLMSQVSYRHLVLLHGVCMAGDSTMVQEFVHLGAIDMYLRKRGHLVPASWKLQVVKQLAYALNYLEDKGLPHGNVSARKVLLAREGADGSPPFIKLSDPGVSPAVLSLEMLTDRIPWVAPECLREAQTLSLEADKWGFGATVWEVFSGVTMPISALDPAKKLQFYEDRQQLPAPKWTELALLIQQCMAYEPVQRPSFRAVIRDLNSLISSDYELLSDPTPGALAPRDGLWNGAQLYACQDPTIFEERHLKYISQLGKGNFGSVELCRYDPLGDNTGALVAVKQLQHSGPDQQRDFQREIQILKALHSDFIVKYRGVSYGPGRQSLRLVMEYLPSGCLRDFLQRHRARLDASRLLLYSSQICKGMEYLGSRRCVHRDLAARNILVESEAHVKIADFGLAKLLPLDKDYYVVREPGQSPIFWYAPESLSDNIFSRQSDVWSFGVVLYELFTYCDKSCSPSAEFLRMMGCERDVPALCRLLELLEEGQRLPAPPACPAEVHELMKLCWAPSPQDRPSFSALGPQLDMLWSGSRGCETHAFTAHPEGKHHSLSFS

Regarding `CCc1cccc(CC)c1NC(=O)c1nn(C)c2c1CCc1cnc(Nc3ccc(C(=O)NC4CCN(C)CC4)cc3OC(F)(F)F)nc1-2`, the 50% inhibitory concentration (IC50) was over 10 µM in [1]; over 10 µM in [2]; over 10 µM in data set [3]; over 10 µM in [4]; 2.96 µM in the data set on KG-1; 2.2 µM with NCI-H526. The values for the half-inhibitory concentration (IC50) in the data set on HCC78, in the data set with SUD4 and in the data set on SU-DHL-1 were 10 µM, 1.6 µM and 3.31 µM, respectively. Further, the result in the data set on HeLa [5], in the data set on HeLa [6], in the data set on A2780 and in the data set on HCT-116 was Active. Further, the peak concentration (Cmax) in data set [7] came out at 600 nM.

Broadly, the IC50 is the midpoint of a concentration-inhibition curve. What is called Cmax is the maximum level reached in the sampled fluid or tissue.
